The subject of this experiment is complex II and III. The experiment can be described thus: Respiratory chain complex activities in mitochondrial fractions. The experiment is classed as cell-based, human. The conditions noted are these: HMGB1 80 nM, 24 h. The procedure:
Enzymatic activities of respiratory chain complexes, glycolytic proteins and malic enzyme were determined in subcellular fractions as previously described (Kaminski, M. M. et al. T cell activation is driven by an ADP-dependent glucokinase linking enhanced glycolysis with mitochondrial reactive oxygen species generation. Cell reports 2, 1300-1315 (2012).Bruncko, M. et al. Naphthamidine urokinase plasminogen activator inhibitors with improved pharmacokinetic properties. Bioorganic & medicinal chemistry letters 15, 93-98, (2005)) using a computer-tuneable spectrophotometer (Spectramax Plus Microplate Reader, Molecular Devices; Sunny Vale, Calif., USA) operating in the dual wavelength mode; samples were analyzed in temperature-controlled 96-well plates in a final volume of 300 μl. Activity of ME1 was recorded in presence of increasing amounts of malic acid (0.02, 0.05, 0.1, 0.2, 0.5, 1, 2.5 mM). Vmax and Km were calculated using a Hanes-Woolf plot. In the presence of high substrate levels the Km for malic acid was similar in all three tested cell lines (SW480: 0.32 mM, HCT116: 0.30 mM, HT29: 0.31 mM). Vmax (mU/mg protein) values were 3.38 (SW480, 0.5-5.0 mM malic acid), 5.77 (HCT116, 0.5-5.0 mM malic acid) and 3.68 (HT29, 0.5-5.0 mM malic acid) and 1.68 (SW480, 0.02-0.2 mM malic acid), 3.24 (HCT116, 0.02-0.2 mM malic acid) and 1.89 (HT29, 0.02-0.2 mM malic acid). Two isoforms of ME1, mitochondrial (NAD(P)+dependent) ME3 and mitochondrial (NAD+dependent) ME2, had very low or no detectable activities (data not shown).
Cells were lysed in lysis buffer P (20 mM Tris-HCl (pH 7.4), 137 mM NaCl, 10% (v/v) glycerine, 1% Triton X-100, 2 mM EDTA, 100 mM phenylmethylsulfonyl fluoride and protease inhibitors (Complete mini from Roche). Lysates were centrifuged at 14,000×g (10 min) at 4° C. Total protein was measured by the Bradford (Bio-Rad) method. Soluble protein was resolved by SDS-PAGE, blotted onto nitrocellulose and incubated with one of the following antibodies: mouse monoclonal anti-β-actin (1:3,000, Sigma-Aldrich), rabbit anti PK M2 (1:1,000, Cell Signaling), rabbit anti-malic enzyme 1 (1:1,000, abcam). Appropriate secondary antibodies (1:3,000, horse-radish peroxidase-conjugated) were from Bio-Rad. Visualization was done by enhanced chemiluminescence technique (GE-Healthcare). Mitochondrial fractions were extracted using the ApoAlert Cell Fractionation Kit (Clontech) as described earlier (Gdynia, G. et al. BLOC1S2 interacts with the HIPPI protein and sensitizes NCH89 glioblastoma cells to apoptosis. Apoptosis: an international journal on programmed cell death 13, 437-447, (2008)).

Consider “HMGB1: recombinant human HMGB1 protein (Sigma-Aldrich); High Mobility Group Box 1 polypeptide, human, SEQ ID NO: 4”, for which the “coupled complex II and III activity” value was “maintained or even upregulated” (HCT116), “maintained or even upregulated” (HT29) and “decreased” (SW480).

The values above are taken from patent publication US11274132B2, “Combined preparations of PKM2 modulators and HMGB1” (Ruprecht-Karls-Universität Heidelberg, priority 2015, dated 2022).
